Columns and labels:
[1] = tested on: SAM in HCT116 human colon carcinoma cell line with MTAP gene deleted (MTAP −/−); assay: Cellular assay of target engagement (SAM), LC-MS/MS, 72 hrs; assay type: cell-based; conditions: HCT-116, IC50 bin with Max Inh., read-out: Cell 72 h SAM Inhibition (MTAP −/−)
Method: Measurement of MAT2A activity in cells was made by direct quantitation of the abundance of the product of its enzymatic activity, SAM. Cancer cells were treated with candidate MAT2A inhibitors for a suitable incubation period, and the cells were then lysed using a reagent which quenched any further enzyme activity. Soluble metabolites including SAM were collected and SAM itself was directly measured from the lysate using quantitative LC-MS/MS.
A typical assay was performed using an HCT116 human colon carcinoma cell line which was genetically engineered to delete the MTAP gene (commercially available from Horizon Discovery). This cell line was utilized because it was determined that loss of the MTAP gene predicts sensitivity to MAT2A inhibitors. Cells were plated in 96-well dishes at appropriate cell density. Following 24 hours, cells were then treated with the candidate MAT2A inhibitor. Prior to addition to cells, the compound was first serially diluted in 100% DMSO, typically as a 3-fold serial dilution starting at 500× top dose with 10 dose points including DMSO only control. Compound was then transferred to a working stock plate in cell culture media by adding 5 μL of compound in DMSO to 495 μL of cell culture media. This working stock was then added to cells via a further 5-fold dilution, by adding 25 μL of working stock to 100 μL of cells in culture media. Following compound addition, cells were incubated at 37° C./5% CO2 for 72 hrs.
To quantitate SAM levels following compound treatment, cells were gently washed once in ammonium carbonate buffer (75 mM at pH 7.4), placed on dry ice, and lysed with metabolite extraction buffer (80% cold methanol and 20% water (v/v) with acetic acid at 1M final concentration with 200 ng/mL deuterated d3-SAM as internal control). Following centrifugation at 4° C. at 3,200 rpm for 30 minutes, the supernatant was collected and stored at −80° C. until analysis by Liquid Chromatography with tandem Mass Spectrometry (LC-MS/MS). LC-MS/MS analysis was performed using an API6500 Mass Spectrometer (Sciex, Framingham, Mass., USA) operating in positive ion spray mode and equipped with a Waters UPLC Acquity (Waters, Milford, Mass., USA) BEH Amide column. Multiple Reaction Monitoring data was acquired for SAM and the d3-SAM standard, using a mass transition pair at m/z 399.2→250.1 and 402.2→250.1, respectively. In a typical LC-MS/MS analysis, the initial flow rate was 0.5 ml/min of 25% mobile phase A (acetonitrile and water at 5:95 (v/v) with 1% formic acid and 10 mM ammonium acetate) and 75% mobile phase B (acetonitrile and water at 95:5 (v/v) with 1% formic acid and 10 mM ammonium acetate), 0.2-0.5 minutes with 75%-35% mobile phase B, 25%-65% mobile phase A, at 0.5 min 65% mobile phase A and 35% mobile phase B, 1.0-1.1 minutes with 35%-75% mobile phase B, 65%-25% mobile phase A, at 1.1 min 25% mobile phase A and 75% mobile phase B with a total run time of 1.5 minutes.
Specific compounds disclosed herein were tested in the foregoing assay and they were determined to inhibit SAM with an IC50. See, Table 1 below.

[2] = tested on: HCT116 MTAP+/+; assay: Inhibition of cellular proliferation, 4 days, Cell Titer Glo, HCT116 MTAP+/+; assay type: cell-based; conditions: Homo sapiens, HCT-116, 96 h, IC50 bin with Max Inh., read-out: 4 Day Relative Growth Inhibition (MTAP +/+)
Method: (§1) Test compound impact on cancer cell growth was assessed by treating cancer cells with compound for 4 days and then measuring proliferation using an ATP-based cell proliferation readout (Cell Titer Glo, Promega Corporation).
(§2) In a typical assay an isogenic pair of HCT116 human colon carcinoma cell lines which vary only in MTAP deletion status (HCT116 MTAP+/+ and HCT116 MTAP−/−) were plated in 96-well dishes at appropriate cell density. Following 24 hours, cells were then treated with the candidate MAT2A inhibitor. Prior to addition to cells, the compound was first serially diluted in 100% DMSO, typically as a 3-fold serial dilution starting at 500× top dose with 10 dose points including DMSO only control. Compound was then transferred to a working stock plate in cell culture media by adding 5 μL of compound in DMSO to 495 μL of cell culture media. This working stock was then added to cells via a further 5-fold dilution, by adding 25 μL of working stock to 100 μL of cells in culture media. Following compound addition, cells were incubated at 37° C./5% CO2 for 4 days.
(§3) To measure inhibition of cellular proliferation, cells were allowed to equilibrate to room temperature for 30 minutes, and were then treated with 125 μL of Cell Titer Glo reagent. The plate was then covered with aluminum foil and shaken for 15 minutes to ensure complete mixing and full cell lysis. Luminescent signal was then measured using a plate-based luminometer Veritas version 1.9.2 using ATP standard curve to confirm assay reproducibility from run to run. This luminescence measure was converted to a proliferation index by subtracting from each data point the ATP luminescence signal measured from a bank (no cells) well and dividing by the ATP luminescence signal measured in 0.2% DMSO control well adjusted for signal in blank well. Compound activity was then represented as a percentage change in proliferation relative to a within-plate DMSO control against log 10 of compound concentration in molar (M) units.
(§4) Specific compounds disclosed herein were tested in the foregoing assay and they were determined to inhibit cellular proliferation with an IC50. See, Table 1 below.

[3] = biological target: T1, MAT2A homodimer (Homo sapiens, UniProt P31153); assay: MAT2A inhibition (biochemical, liberated phosphate, PiColorLock Gold); conditions: recombinant MAT2A homodimer; IC50 bin with Max Inh.; read-out: Enzyme Inhibition Bin
T1 construct: inferred from Ni sepharose purification with imidazole elution; made in house; host or cells: Sf9 insect cells, baculovirus (Bac to Bac, pFASTBAC1)
T1 sequence (P31153 whole entry): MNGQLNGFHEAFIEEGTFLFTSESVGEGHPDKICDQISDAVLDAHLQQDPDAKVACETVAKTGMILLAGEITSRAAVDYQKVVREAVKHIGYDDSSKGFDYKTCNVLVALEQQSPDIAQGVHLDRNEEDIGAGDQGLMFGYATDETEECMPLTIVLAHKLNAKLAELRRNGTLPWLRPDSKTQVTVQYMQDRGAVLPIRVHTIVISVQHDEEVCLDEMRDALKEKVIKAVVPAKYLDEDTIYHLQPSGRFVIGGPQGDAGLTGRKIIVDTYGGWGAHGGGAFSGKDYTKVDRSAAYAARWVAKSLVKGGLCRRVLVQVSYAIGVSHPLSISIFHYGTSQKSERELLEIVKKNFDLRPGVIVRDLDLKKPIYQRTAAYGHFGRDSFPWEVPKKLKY
Method: Mat2A protein was expressed by recombinant baculovirus in SF9 infected cells using the Bac to Bac system cloned into the pFASTBAC1 vector (Invitrogen, Carlsbad, Calif.). Recombinant MAT2A was isolated from the cell lysate of 150 g of infected cells using HP Ni sepharose column chromatography. Recombinant MAT2A homodimer was eluted with 250 and 500 mM imidazole, and fractions containing MAT2A were identified by sodium dodecyl sulfate polyacrylamide gel electrophoresis and pooled.
For determination of the inhibitory potency of compounds against the MAT2A homodimer, protein was diluted to 4 μg/mL in assay buffer (50 mM Tris, pH 8.0, 50 mM KCl, 15 mM MgCl2, 0.3 mM EDTA, 0.005% [w/v] bovine serum albumin [BSA]). Test compound was prepared in 100% dimethyl sulfoxide (DMSO) at 50× the desired final concentration. A 1 μL volume of compound dilution was added to 40 μL of enzyme dilution and the mixture was allowed to equilibrate for 60 minutes at 25° C. The enzymatic assay was initiated by the addition of 10 μL of substrate mix (500 μM ATP, pH 7.0, 400 μM L-methionine in 1× assay buffer), and the mixture was incubated for a further 60 minutes at 25° C. The reaction was halted and the liberated phosphate released by the enzyme in stoichiometric amounts by the production of S-adenosyl methionine (SAM) was measured using the PiColorLock Gold kit (Innova Biosciences, UK). Absolute product amounts were determined by comparison to a standard curve of potassium phosphate buffer, pH 8.0. The compounds were also tested in a secondary assay utilizing 1 μg/mL MAT2A and incubated for 5 hours at 25° C. before halting and processing as above.
Specific compounds disclosed herein were tested in the foregoing assay and they were determined to inhibit MAT2A with an IC50. See, Table 1 below.

[4] = tested on: HCT116 MTAP−/−; assay: Inhibition of cellular proliferation, 4 days, Cell Titer Glo, HCT116 MTAP−/−; assay type: cell-based; conditions: Homo sapiens, HCT-116, 96 h, IC50 bin with Max Inh., read-out: 4 Day Relative Growth Inhibition (MTAP −/−)
Method: as §1, §2, §3, §4

SMILES	IC50 [1]	IC50 [2]	IC50 [3]	IC50 [4]
Cn1cc2cc(-n3nc4ccn(CC5CC5)c4c(-c4ccc(OC(F)F)cc4)c3=O)ccc2n1 [Example 101, 5-(cyclopropylmethyl)-4-(4-(difluoromethoxy)phenyl)-2-(2-methyl-2H-indazol-5-yl)-2,5-dihydro-3H-pyrrolo[3,2-c]pyridazin-3-one]	< 100 nM	> 1000 nM	< 100 nM	< 100 nM
Cn1cc2cc(-n3nc4c(C#N)cn(CC5CC5)c4c(-c4ccc(OC(F)F)cc4)c3=O)ccc2n1 [Example 102, 5-(cyclopropylmethyl)-4-(4-(difluoromethoxy)phenyl)-2-(2-methyl-2H-indazol-5-yl)-3-oxo-3,5-dihydro-2H-pyrrolo[3,2-c]pyridazine-7-carbonitrile]	< 100 nM	> 1000 nM	< 100 nM	< 100 nM
Cc1ccc(-c2c(=O)n(-c3ccc4nn(C)cc4c3)nc3ccn(CC4CC4)c23)cn1 [Example 103, 5-(cyclopropylmethyl)-2-(2-methyl-2H-indazol-5-yl)-4-(6-methylpyridin-3-yl)-2,5-dihydro-3H-pyrrolo[3,2-c]pyridazin-3-one]	< 100 nM	100 to 1000 nM	< 100 nM	< 100 nM
Cc1ccc(-c2c(=O)n(-c3ccc4nn(C)cc4c3)nc3c(C#N)cn(CC4CC4)c23)cn1 [Example 104, 5-(cyclopropylmethyl)-2-(2-methyl-2H-indazol-5-yl)-4-(6-methylpyridin-3-yl)-3-oxo-3,5-dihydro-2H-pyrrolo[3,2-c]pyridazine-7-carbonitrile]	< 100 nM	> 1000 nM	< 100 nM	< 100 nM
Cn1cc2cc(-n3nc4ccn(CCC(F)(F)F)c4c(-c4ccc(OC(F)F)cc4)c3=O)ccc2n1 [Example 105, 4-(4-(difluoromethoxy)phenyl)-2-(2-methyl-2H-indazol-5-yl)-5-(3,3,3-trifluoropropyl)-2,5-dihydro-3H-pyrrolo[3,2-c]pyridazin-3-one]	< 100 nM	> 1000 nM	< 100 nM	< 100 nM
Cn1cc2cc(-n3nc4ccn(CC5CC5)c4c(-c4ccc(C5CC5)nc4)c3=O)ccc2n1 [Example 106, 5-(cyclopropylmethyl)-4-(6-cyclopropylpyridin-3-yl)-2-(2-methyl-2H-indazol-5-yl)-2,5-dihydro-3H-pyrrolo[3,2-c]pyridazin-3-one]	< 100 nM	> 1000 nM	< 100 nM	< 100 nM
Cn1cc2cc(-n3nc4c(C#N)cn(CC5CC5)c4c(-c4ccc(C5CC5)nc4)c3=O)ccc2n1 [Example 107, 5-(cyclopropylmethyl)-4-(6-cyclopropylpyridin-3-yl)-2-(2-methyl-2H-indazol-5-yl)-3-oxo-3,5-dihydro-2H-pyrrolo[3,2-c]pyridazine-7-carbonitrile]	< 100 nM	100 to 1000 nM	< 100 nM	< 100 nM
Cc1ccc(-c2c(=O)n(-c3ccc4nn(C)cc4c3)nc3c(C#N)cn(CCC(F)(F)F)c23)cn1 [Example 108, 2-(2-methyl-2H-indazol-5-yl)-4-(6-methylpyridin-3-yl)-3-oxo-5-(3,3,3-trifluoropropyl)-3,5-dihydro-2H-pyrrolo[3,2-c]pyridazine-7-carbonitrile]	100 to 1000 nM	100 to 1000 nM	100 to 1000 nM	> 1000 nM
Cn1cc2cc(-n3nc4c(C#N)cn(CCC(F)(F)F)c4c(-c4ccc(C5CC5)nc4)c3=O)ccc2n1 [Example 109, 4-(6-cyclopropylpyridin-3-yl)-2-(2-methyl-2H-indazol-5-yl)-3-oxo-5-(3,3,3-trifluoropropyl)-3,5-dihydro-2H-pyrrolo[3,2-c]pyridazine-7-carbonitrile]	100 to 1000 nM	> 1000 nM	< 100 nM	100 to 1000 nM
COc1ccc(-c2c(=O)n(-c3ccc4nn(C)cc4c3)nc3ccn(CC4CC4)c23)cn1 [Example 110, 5-(cyclopropylmethyl)-4-(6-methoxypyridin-3-yl)-2-(2-methyl-2H-indazol-5-yl)-2,5-dihydro-3H-pyrrolo[3,2-c]pyridazin-3-one]	< 100 nM	> 1000 nM	< 100 nM	< 100 nM
COc1ccc(-c2c(=O)n(-c3ccc4nn(C)cc4c3)nc3c(C#N)cn(CC4CC4)c23)cn1 [Example 111, 5-(cyclopropylmethyl)-4-(6-methoxypyridin-3-yl)-2-(2-methyl-2H-indazol-5-yl)-3-oxo-3,5-dihydro-2H-pyrrolo[3,2-c]pyridazine-7-carbonitrile]	< 100 nM	> 1000 nM	< 100 nM	< 100 nM
Cn1cc2cc(-n3nc4ccn(CC5CC5)c4c(-c4ccc(Cl)cc4)c3=O)ccc2n1 [Example 112, 4-(4-chlorophenyl)-5-(cyclopropylmethyl)-2-(2-methyl-2H-indazol-5-yl)-2,5-dihydro-3H-pyrrolo[3,2-c]pyridazin-3-one]	< 100 nM	> 1000 nM	< 100 nM	< 100 nM

From patent US20220169654A1, “New Organic Compounds” (Servier Pharmaceuticals LLC, priority 2020, published 2022)
